The source of these data is patent US20250032527A1, “MEDICAL USE OF N4-HYDROXY CITICOLINE COMPOUNDS” (IMMUNIC AG, priority 2021, published 2025).

Each structure is given as a SMILES string. Converted amounts (≈) assume the structure as drawn. Structures can show the parent of a compound that is named as a salt. Where two headings read alike, the source gives them in different places.

For data set [1] the following is noted: cited from earlier work.
Data set [2] can be described thus: Mouse pharmacokinetics, blood levels after single oral dose. In kind it is in vivo, female C57BL/6 mice. As to the method: The present study aimed at the determination of pharmacokinetic parameters of Example 2 and it's metabolites (NHC, NHC-MP, NHC-DP and NHC-TP) in blood after single dose oral administration of 96.5 μmol/kg to female C57BL/6 mice (body weight 20 to 21 g). Blood samples were obtained from the retrobulbar venous plexus into Li-Heparin tubes (Minivette POCT, […]). The vehicle for preparation of the dose formulations was PBS. The samples were analysed by high resolution LC-MS at Pharmacelsus GmbH, Germany.

A further data set relates to RSV A2. The data set is described as follows: RSV virus titers by endpoint titration (CCID50), mono and combination. The settings on record: MA-104 cells, virus control 4.0. The format is cell-based.
The next data set in a line: Microsomal stability. In kind it is in vitro ADME. The settings on record: compared to non-deuterated matched pair C26.
A short description of another data set: in vitro. The note with it: human.
The test system of the next data set is HRV-14. The data set is described as follows: HRV-14 virus titers by endpoint titration (CCID50), mono and combination. The format is cell-based. The note with it: Hela cells, virus control 6.7.
The next data set concerns SARS-COV-2. Put plainly: microbe, parasite or virus in culture. The note with it: for EC50: Severe acute respiratory syndrome coronavirus 2; for SI: SARS-COV-2, CC50/EC50. In kind it is cell-based.
Data set [3] addresses N-terminally truncated recombinant hDHODH enzyme (Homo sapiens, UniProt Q02127). The data set is described as follows: Human DHODH inhibition assay. The format is biochemical. The note with it: pH 8.0, 30° C. As to the method: Briefly, the hDHODH concentration was adjusted in a way that an average slope of approximately 0.2 AU/min served as the positive control (e.g. without inhibitor). […] The reaction was started by adding dihydroorotate and measuring the absorption at 600 nm for 2 min. For the determination of the IC50 values, each data point was recorded in triplicate. For the determination of the inhibitory constant Ki, the KM values for DHO and decylubichinon were determined. Afterwards, the compounds were diluted in a dilution series depending on their IC50 values in DMSO. The dilution was: 0 ×IC50 , 1/4×IC50 , 1/2×IC50 , 1×IC50 , 2×IC50 , 4×IC50 . […] Each data point was recorded in duplicate.

For data set [4] the following is noted: pH 7.4.
The conditions of data set [5]: pH 7.4. The source holds these as a separate data set.
The nature of data set [6]: physchem. The note with it: pH 7.4, aqueous buffer, kinetic from dmso stock.
Data set [7] can be described thus: A-B permeability (Caco-2, pH 6.5/7.4). The note with it: human, A-B, Caco-2, pH 6.5/7.4, test conc. 1.0E−05M.
A short description of data set [8]: physchem. The settings on record: fassgf or other biorelevant, kinetic from dmso stock.
A short description of data set [9]: B-A permeability (Caco-2, pH 6.5/7.4). The settings on record: human, test conc. 1.0E−05M.
The nature of data set [10]: physchem. The settings on record: pH 7.4.
Data set [11] in a line: physchem. The settings on record: simulated gastric fluid.
The mark [12] stands for this setting: SARS-COV-2 viral replication (YFP), read-out: EC50.
[13] abbreviates: metabolite in blood of mice after single oral 96.5 μmol/kg Example 2.
The mark [14] stands for this setting: Caco-2, pH 6.5, Percent Recovery 1st.
Where [15] appears, read: Caco-2, pH 6.5, Percent Recovery 2nd.
Where [16] appears, read: Caco-2, pH 6.5, Percent Recovery Mean.
The mark [17] stands for this setting: Caco-2, pH 6.5, Permeability 1st.
The mark [18] stands for this setting: Caco-2, pH 6.5, Permeability 2nd.
Setting [19] is: Caco-2, pH 6.5, Permeability Mean.

Sequence of N-terminally truncated recombinant hDHODH enzyme (Q02127 whole entry, looked up, the tested form may be a part): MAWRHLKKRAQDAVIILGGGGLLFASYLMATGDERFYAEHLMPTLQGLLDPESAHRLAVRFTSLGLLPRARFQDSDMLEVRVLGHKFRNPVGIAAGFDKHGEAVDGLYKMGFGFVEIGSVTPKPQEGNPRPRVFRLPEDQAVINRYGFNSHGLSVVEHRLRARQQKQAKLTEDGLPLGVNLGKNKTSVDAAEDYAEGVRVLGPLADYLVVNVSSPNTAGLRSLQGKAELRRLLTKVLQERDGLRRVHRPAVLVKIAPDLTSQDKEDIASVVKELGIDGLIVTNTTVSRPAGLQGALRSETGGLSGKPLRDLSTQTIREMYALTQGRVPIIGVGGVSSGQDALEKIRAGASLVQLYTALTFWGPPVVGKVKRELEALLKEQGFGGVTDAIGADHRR

Take `C[N+](C)(C)CCOP(=O)(O)OP(=O)([O-])OC[C@H]1O[C@@H](n2ccc(N)nc2=O)[C@H](O)[C@@H]1O` [Citicoline, cytidine 5′-diphosphocholine]: the oral bioavailability entry in data set [1] is reported as “more than 90%”.
Consider `C[N+](C)(C)CCOP(=O)(O)OP(=O)([O-])OC[C@H]1O[C@@H](n2ccc(NO)nc2=O)[C@H](O)[C@@H]1O` [Example 2, 2-(((((((2R,3S,4R,5R)-3,4-Dihydroxy-5-(4-(hydroxyamino)-2-oxopyrimidin-1 (2H)-yl)tetrahydrofuran-2-yl)methoxy) (hydroxy)phosphoryl)oxy)oxidophosphoryl)oxy)-N,N,N-trimethylethan-1-aminium triethylammonium salt], for which the “blood concentration of test item (lower limit of quantification)” value in data set [2] (mice, single oral 96.5 μmol/kg Example 2, not found in all blood samples) is recorded as < 14.4 nM.
For the compound `[2H]C([2H])([2H])Oc1cccc(-c2ccc(NC(=O)C3=C(C(=O)O)CCC3)c(F)c2)c1` [Example 50, 2-((3-Fluoro-3′-(methoxy-d3)-[1,1′-biphenyl]-4-yl)carbamoyl) cyclopent-1-ene-1-carboxylic acid], the “RSV Virus Titers” value in the data set on RSV A2 (Conc. 0.0079 μM) is on record as 3.7 CCID50/mL (Log10); in the data set on RSV A2 (Conc. 0.025 μM) it was 3.7 CCID50/mL (Log10); in the data set on RSV A2 (Conc. 0.079 μM) it was 3.5 CCID50/mL (Log10); with RSV A2 (Conc. 0.25 μM), 3.5 CCID50/mL (Log10); with RSV A2 (Conc. 0.79 μM) it was 3.5 CCID50/mL (Log10); in the data set on RSV A2 (Conc. 2.5 μM), 2.0 CCID50/mL (Log10). In addition, the “RSV Virus Titers” value with RSV A2 (Conc. 7.9 μM) is on record as 2.0 CCID50/mL (Log10); in the data set on RSV A2 (Conc. 25 μM) it was <0.7 CCID50/mL (Log10). Further, the microsomal stability result in “Microsomal stability” is listed as “improved”. In addition, in the data set “in vitro”, the CC50 is > 100 µM. Further, the “HRV-14 Virus Titers” value is 6.7 CCID50/mL (Log10) in the data set on HRV-14 (Conc. 0.0079 μM); 6.7 CCID50/mL (Log10) in the data set on HRV-14 (Conc. 0.025 μM); 7.0 CCID50/mL (Log10) with HRV-14 (Conc. 0.079 μM); 6.7 CCID50/mL (Log10) in the data set on HRV-14 (Conc. 0.25 μM); 6.7 CCID50/mL (Log10) in the data set with HRV-14 (Conc. 0.79 μM); 7.0 CCID50/mL (Log10) with HRV-14 (Conc. 2.5 μM). In addition, the “HRV-14 Virus Titers” value with HRV-14 (Conc. 7.9 μM) is given as 4.0 CCID50/mL (Log10); with HRV-14 (Conc. 25 μM) it was 3.5 CCID50/mL (Log10). Also, in the data set with SARS-COV-2, the EC50 is < 10 µM.
Regarding `[2H]C([2H])([2H])Oc1cccc(-c2cc(F)c(NC(=O)C3=C(C(=O)O)CCC3)c(F)c2)c1` [Example 51, 2-((3,5-Difluoro-3′-(methoxy-d3)-[1,1′-biphenyl]-4-yl)carbamoyl) cyclopent-1-ene-1-carboxylic acid], the CC50 in the data set “in vitro” was > 100 µM. Besides, the SI with SARS-COV-2 was >5. For the same compound, the EC50 with SARS-COV-2 (setting [12]) was < 20 µM.
As for `C[N+](C)(C)CCOP(=O)([O-])OP(=O)([O-])OC[C@H]1O[C@@H](n2ccc(N)nc2=O)[C@H](O)[C@@H]1O.[Na+]` [Example C1, Citicoline sodium, reference compound], in “in vitro”, the CC50 is > 100 µM. For the same compound, in the data set on SARS-COV-2, the SI entry was “inactive”. The EC50 in the data set on SARS-COV-2 (setting [12]) is > 50 µM.
With `COc1cccc(C2=CCC=C(NC(=O)C3=C(C(=O)O)CCC3)C(F)=C2)c1` [Example C26], the inhibitory constant (Ki) in data set [3] (substrate DHO varied, read-out: Ki (DHO)) is 0.592 µM; in [3] (substrate decylubichinon varied, read-out: Ki (decylubichinon)) it was 0.245 µM.
`O=c1nc(NO)ccn1[C@@H]1O[C@H](CO)[C@@H](O)[C@H]1O` [NHC, β-D-N^4-hydroxycytidine]: the logD in data set [4] amounted to 1.12. In [5], the “Solubility 1st” value was found to be 349.99 µM (≈ 90.7 µg/mL), the “Solubility 2nd” value was 362.05 µM (≈ 93.8 µg/mL) and the “Solubility Mean” value was > 200 µM.
Take `O=c1nc(NO)ccn1[C@@H]1O[C@H](COP(=O)(O)OP(=O)(O)O)[C@@H](O)[C@H]1O` [NHC-DP, β-D-N^4-hydroxycytidine 5′-diphosphate]: in [4], the pH-dependent lipophilicity (logD) is on record as 0.12.
Consider `O=c1nc(NO)ccn1[C@@H]1O[C@H](COP(=O)(O)O)[C@@H](O)[C@H]1O` [NHC-MP], for which, in [2] (setting [13]), the “AUC (0-inf)” value worked out at 1.624 µM·h, the elimination half-life was determined as 7.3 h, the maximal blood concentration is 274+41.4 nM and the “time of maximal blood concentration post dose” value came to 30 min.
As to `O=c1nc(NO)ccn1[C@@H]1O[C@H](COP(=O)(O)OP(=O)(O)OP(=O)(O)O)[C@@H](O)[C@H]1O` [NHC-TP, β-D-N^4-hydroxycytidine 5′-triphosphate, reference compound], in data set [2] (setting [13]), the maximal blood concentration is reported as 611+100 nM and the “time of maximal blood concentration post dose” value was determined as 240 min.
On to `CC(C)C(=O)OC[C@H]1O[C@@H](n2ccc(NO)nc2=O)[C@H](O)[C@@H]1O` [molnupiravir, reference compound], for which the solubility in “physchem [6]” (Solubility 1st) was 247 µM (≈ 81.3 µg/mL); in “physchem [6]” (Solubility 2nd) it was 291 µM (≈ 95.7 µg/mL); in the data set “physchem [6]” (Solubility Mean) it was > 200 µM; in the data set “physchem [8]” (Solubility 1st), 302 µM (≈ 99.3 µg/mL); in “physchem [8]” (Solubility 2nd), 329 µM (≈ 108 µg/mL); in the data set “physchem [8]” (Solubility Mean), > 200 µM. Moreover, the figures for the solubility in the data set “physchem [11]” (Solubility 1st), in the data set “physchem [11]” (Solubility 2nd) and in the data set “physchem [11]” (Solubility Mean) were 258 µM (≈ 84.9 µg/mL), 293 µM (≈ 96.4 µg/mL) and > 200 µM, respectively. Further, the recovery at 10 µM was determined as 70% in [7] (setting [14]); 71% in data set [7] (setting [15]); 71% in [7] (setting [16]); 90% in [9] (setting [14]); 89% in data set [9] (setting [15]); 89% in [9] (setting [16]). The Papp at 10 µM turned out to be 0.19 ×10⁻⁶ cm/s in data set [7] (setting [17]); 0.13 ×10⁻⁶ cm/s in [7] (setting [18]); 0.2 ×10⁻⁶ cm/s in data set [7] (setting [19]); 0.26 ×10⁻⁶ cm/s in [9] (setting [17]); 0.27 ×10⁻⁶ cm/s in data set [9] (setting [18]); 0.3 ×10⁻⁶ cm/s in data set [9] (setting [19]). In addition, the pH-dependent lipophilicity (logD) in “physchem [10]” worked out at 0.39.
